Experimental findings from patent US20150031693A1, “PAK INHIBITORS FOR THE TREATMENT OF FRAGILE X SYNDROME” (AFRAXIS HOLDINGS, INC., priority 2011, published 2015) are described below.

The target of one test is PAK3 (Homo sapiens, UniProt O75914). Kind of test: In vitro PAK inhibition assay (Z'-LYTE), PAK3. It is filed as biochemical. As to the method: (§1) In Vitro PAK Inhibition Assay
(§2) Compounds are screened in 1% DMSO (final) in the well. For 10 point titrations, 3-fold serial dilutions are conducted. All Peptide/Kinase Mixtures are diluted to a 2× working concentration in the appropriate Kinase Buffer
The 2× PAK3/Ser/Thr 20 mixture is prepared in 50 mM HEPES pH 7.5, 0.01% BRIJ-35, 10 mM MgCl2, 1 mM EGTA. The final 10 μL Kinase Reaction consists of 2.25-22 ng PAK3 and 2 μM Ser/Thr 20 in 50 mM HEPES pH 7.5, 0.01% BRIJ-35, 10 mM MgCl2, 1 mM EGTA. After the 1 hour Kinase Reaction incubation, 5 μL of a 1:256 dilution of Development Reagent A is added.
(§3) Bar-coded Corning, low volume NBS, black 384-well plate (Corning Cat. #3676) • 1. Add the following solutions to a well in a 384-well plate: 2.5 μL of 4× Test Compound OR (100 nL 100× Test Compound plus 2.4 μL kinase buffer) • 5 μL of 2× Peptide/Kinase (PAK) Mixture • 2.5 μL of 4× ATP Solution • 2. Shake the plate for 30-seconds • 3. Incubate the PAK Kinase Reaction at room temperature for 60-minutes • 4. Add 5 μL of Development Reagent Solution to each well • 5. Shake the plate for 30-seconds • 6. Incubate the Development Reaction for 60-minutes • 7. Determine the fluorescence using a fluorescence plate reader • 8. Analyze the fluorescence data
(§4) SelectScreen® Kinase Profiling Service uses XLfit from IDBS. The dose response curve is curve fit to model number 205 (sigmoidal dose-response model).
(§5) The table below provides specifications and data around each kinase. The representative IC50 value with a known inhibitor for each kinase was determined at the ATP bin nearest to the ATP Km app.

Test [1] addresses T1, PAK1 (Homo sapiens, UniProt Q13153). Kind of test: In vitro PAK inhibition assay (Z'-LYTE), PAK1. It is filed as biochemical. The procedure:
as §1, §2
The 2× PAK1/Ser/Thr 19 mixture is prepared in 50 mM HEPES pH 7.5, 0.01% BRIJ-35, 10 mM MgCl2, 1 mM EGTA. The final 10 μL Kinase Reaction consists of 2.71-30.8 ng PAK1 and 2 μM Ser/Thr 19 in 50 mM HEPES pH 7.5, 0.01% BRIJ-35, 10 mM MgCl2, 1 mM EGTA. After the 1 hour Kinase Reaction incubation, 5 μL of a 1:128 dilution of Development Reagent A is added.
as §3, §4, §5

Test [2] deals with T2, PAK4 (Homo sapiens, UniProt O96013). Put plainly: In vitro PAK inhibition assay (Z'-LYTE), PAK4. In kind it is biochemical. The procedure:
as §1, §2
The 2× PAK4/Ser/Thr 20 mixture is prepared in 50 mM HEPES pH 7.5, 0.01% BRIJ-35, 10 mM MgCl2, 1 mM EGTA. The final 10 μL Kinase Reaction consists of 0.1-0.75 ng PAK4 and 2 μM Ser/Thr 20 in 50 mM HEPES pH 7.5, 0.01% BRIJ-35, 10 mM MgCl2, 1 mM EGTA. After the 1 hour Kinase Reaction incubation, 5 μL of a 1:256 dilution of Development Reagent A is added.
as §3, §4, §5

The target of the next test is PAK2 (PAK65) (Homo sapiens, UniProt Q13177). Put plainly: In vitro PAK inhibition assay (Z'-LYTE), PAK2. In kind it is biochemical. The procedure: as §1, §2
Sequence of PAK2 (PAK65) (Q13177 whole entry): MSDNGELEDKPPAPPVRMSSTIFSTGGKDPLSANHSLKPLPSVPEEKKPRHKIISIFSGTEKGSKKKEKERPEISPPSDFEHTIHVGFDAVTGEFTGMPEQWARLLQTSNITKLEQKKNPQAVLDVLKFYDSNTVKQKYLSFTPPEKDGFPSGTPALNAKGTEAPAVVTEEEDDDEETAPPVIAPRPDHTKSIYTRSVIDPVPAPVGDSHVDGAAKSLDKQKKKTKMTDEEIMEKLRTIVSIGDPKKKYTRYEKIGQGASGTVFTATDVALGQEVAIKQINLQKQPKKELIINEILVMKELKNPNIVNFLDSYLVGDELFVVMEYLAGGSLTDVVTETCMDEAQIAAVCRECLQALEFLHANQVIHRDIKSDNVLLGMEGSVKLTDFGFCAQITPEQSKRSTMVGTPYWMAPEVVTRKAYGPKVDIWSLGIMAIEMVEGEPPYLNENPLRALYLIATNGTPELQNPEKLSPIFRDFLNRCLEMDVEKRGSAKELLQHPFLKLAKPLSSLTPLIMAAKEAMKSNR
The 2× PAK2 (PAK65)/Ser/Thr 20 mixture is prepared in 50 mM HEPES pH 7.5, 0.01% BRIJ-35, 10 mM MgCl2, 1 mM EGTA. The final 10 μL Kinase Reaction consists of 0.29-6 ng PAK2 (PAK65) and 2 μM Ser/Thr 20 in 50 mM HEPES pH 7.5, 0.01% BRIJ-35, 10 mM MgCl2, 1 mM EGTA. After the 1 hour Kinase Reaction incubation, 5 μL of a 1:256 dilution of Development Reagent A is added.
as §3, §4, §5

Test [3] concerns the target T1, PAK1. Kind of test: Additional in vitro PAK inhibition assay, PAK1. It is filed as biochemical. The procedure: (§6) Additional In Vitro PAK Inhibition Assay
(§7) Similar in vitro PAK1 and PAK4 inhibition assay was conducted in compounds for the treatment of Fragile X syndrome, but under ATP concentrations of 10 uM and 1 mM.

The target in test [4] is T2, PAK4. Put plainly: Additional in vitro PAK inhibition assay, PAK4. In kind it is biochemical. As to conditions: 10 μM ATP. The procedure:
as §6, §7

The next test relates to p-MEK1(S298). Kind of test: In vitro cellular HTRF assay for p-MEK1(S298). It is filed as cell-based. Particulars: cell line RT4-D6P2T, read-out: pMEK1(S298). The source says: (§8) In Vitro p-PAK1(S144) and p-MEK1(S298) Cellular Assay
(§9) The cell line is RT4-D6P2T.
For orientation: Time-resolved FRET reads energy transfer from a long-lived donor to a nearby acceptor.

The test system of the next test is p-PAK1(S144). Kind of test: In vitro cellular HTRF assay for p-PAK1(S144). As to conditions: cell line RT4-D6P2T, read-out: pPAK1(S144). It is filed as cell-based.
Excerpt: as §8, §9

T2 sequence (O96013 whole entry): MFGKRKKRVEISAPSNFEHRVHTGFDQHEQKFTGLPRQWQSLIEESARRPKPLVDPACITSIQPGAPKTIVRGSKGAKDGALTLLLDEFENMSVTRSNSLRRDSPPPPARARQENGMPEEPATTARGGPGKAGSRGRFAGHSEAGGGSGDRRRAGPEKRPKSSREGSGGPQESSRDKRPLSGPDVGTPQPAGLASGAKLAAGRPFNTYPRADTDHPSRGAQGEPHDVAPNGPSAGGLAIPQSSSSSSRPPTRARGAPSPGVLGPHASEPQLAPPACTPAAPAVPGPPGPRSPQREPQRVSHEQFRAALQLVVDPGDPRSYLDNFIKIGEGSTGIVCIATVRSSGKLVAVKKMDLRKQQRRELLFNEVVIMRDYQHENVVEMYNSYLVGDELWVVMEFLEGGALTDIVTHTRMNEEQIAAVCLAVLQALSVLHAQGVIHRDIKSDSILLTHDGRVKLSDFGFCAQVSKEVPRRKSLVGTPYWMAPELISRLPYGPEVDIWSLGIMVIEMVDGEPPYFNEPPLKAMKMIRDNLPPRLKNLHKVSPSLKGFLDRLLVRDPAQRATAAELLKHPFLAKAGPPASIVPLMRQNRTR
T1 sequence (Q13153 whole entry): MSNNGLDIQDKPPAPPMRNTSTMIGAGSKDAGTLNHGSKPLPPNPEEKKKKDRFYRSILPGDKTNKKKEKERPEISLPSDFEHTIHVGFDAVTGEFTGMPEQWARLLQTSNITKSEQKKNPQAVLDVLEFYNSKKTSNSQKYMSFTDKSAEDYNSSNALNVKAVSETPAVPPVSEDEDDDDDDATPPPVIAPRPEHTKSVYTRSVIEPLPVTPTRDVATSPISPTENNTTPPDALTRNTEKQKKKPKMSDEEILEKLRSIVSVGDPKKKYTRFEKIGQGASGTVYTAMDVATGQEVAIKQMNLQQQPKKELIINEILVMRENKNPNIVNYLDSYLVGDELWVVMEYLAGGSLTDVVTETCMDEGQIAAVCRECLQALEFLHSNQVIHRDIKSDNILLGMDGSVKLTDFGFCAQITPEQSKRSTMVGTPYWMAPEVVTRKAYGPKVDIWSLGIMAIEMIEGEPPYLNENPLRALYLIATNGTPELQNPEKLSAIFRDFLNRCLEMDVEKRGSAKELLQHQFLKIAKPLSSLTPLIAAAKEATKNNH
Sequence of PAK3 (O75914 whole entry): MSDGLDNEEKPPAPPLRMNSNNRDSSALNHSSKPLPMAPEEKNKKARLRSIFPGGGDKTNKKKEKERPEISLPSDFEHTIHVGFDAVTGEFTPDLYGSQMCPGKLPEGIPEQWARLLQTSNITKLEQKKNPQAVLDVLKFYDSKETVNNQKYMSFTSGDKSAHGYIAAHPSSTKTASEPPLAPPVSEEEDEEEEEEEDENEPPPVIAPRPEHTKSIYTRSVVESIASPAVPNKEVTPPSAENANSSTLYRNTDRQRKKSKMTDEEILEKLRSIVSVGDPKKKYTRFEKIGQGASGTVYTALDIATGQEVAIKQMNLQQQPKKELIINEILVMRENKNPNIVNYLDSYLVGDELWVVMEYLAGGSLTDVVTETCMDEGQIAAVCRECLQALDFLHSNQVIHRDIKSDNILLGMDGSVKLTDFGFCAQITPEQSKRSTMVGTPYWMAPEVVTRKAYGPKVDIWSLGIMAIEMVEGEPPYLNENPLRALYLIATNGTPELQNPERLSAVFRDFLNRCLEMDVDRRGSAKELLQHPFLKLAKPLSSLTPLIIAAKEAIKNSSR

`CCn1c(=O)c(-c2ccc(-c3nccnc3C)cc2Cl)cc2cnc(NCCCO)nc21` [Example 3]: the IC50 was 50 to 500 nM against PAK3, 50 to 500 nM at PAK1 [1], > 5000 nM on PAK4 [2] and 50 to 500 nM against PAK2 (PAK65).
For `CCn1c(=O)c(-c2ccc(-c3nccnc3C)cc2Cl)cc2cnc(NC(CCO)CCO)nc21` [Example 5], the IC50 was 500 to 5000 nM at PAK3, 500 to 5000 nM at PAK1 [1], > 5000 nM against PAK4 [2] and 500 to 5000 nM at PAK2 (PAK65).
On to `CCn1c(=O)c(-c2ccc(-c3cncc(C)n3)cc2Cl)cc2cnc(NCCCO)nc21` [Example 1, 6-(2-chloro-4-(6-methylpyrazin-2-yl)phenyl)-8-ethyl-2-((3-hydroxypropyl)amino)pyrido[2,3-d]pyrimidin-7(8H)-one], for which the IC50 was 50 to 500 nM at PAK3, 50 to 500 nM against PAK1 [1], > 5000 nM against PAK4 [2] and 50 to 500 nM at PAK2 (PAK65).
For `CCn1c(=O)c(-c2ccc(-c3nccnc3C)cc2Cl)cc2cnc(NCCO)nc21` [Example 6], the IC50 on PAK3 was 50 to 500 nM; against PAK1 [1], 50 to 500 nM; at PAK4 [2], > 5000 nM; at PAK2 (PAK65), 50 to 500 nM.
In the case of `CCn1c(=O)c(-c2ccc(-c3cncc(C)n3)cc2Cl)cc2cnc(NCCOC)nc21` [Example 11], the IC50 against PAK3 is 500 to 5000 nM; at PAK1 [1], 50 to 500 nM; against PAK4 [2], > 5000 nM; on PAK2 (PAK65), 50 to 500 nM.
With `CCn1c(=O)c(-c2ccc(-c3noc(C)n3)cc2Cl)cc2cnc(N[C@@H]3COC[C@@H]3N3CCN(C)CC3)nc21`, the IC50 was 50 to 500 nM at PAK1 [3] (10 μM ATP, read-out: PAK1 IC50 (10 μM ATP)); > 5000 nM on PAK1 [3] (1 mM ATP, read-out: PAK1 IC50 (1 mM ATP)); > 5000 nM on PAK4 [4].
Turning to `CCn1c(=O)c(-c2ccc(-c3cncc(C)n3)cc2Cl)cc2cnc(NCCCOC)nc21` [Example 10], the IC50 against PAK3 was 50 to 500 nM; on PAK1 [1], 50 to 500 nM; against PAK4 [2], > 5000 nM; against PAK2 (PAK65), 50 to 500 nM.
With `Cc1cncc(-c2ccc(-c3cc4cnc(NC(CCO)CCO)nc4n(Cc4ccccc4C(F)(F)F)c3=O)c(Cl)c2)n1` [Example 2], the IC50 at PAK3 was 50 to 500 nM; against PAK1 [1], 50 to 500 nM; against PAK4 [2], > 5000 nM; at PAK2 (PAK65) it was 50 to 500 nM.
Consider `CCn1c(=O)c(-c2ccc(-c3cncc(C)n3)cc2Cl)cc2cnc(N[C@H]3CC[C@H](CN(C)C)CC3)nc21`, for which the IC50 in the test with p-MEK1(S298) and in the test with p-PAK1(S144) was 500 to 5000 nM each time.
With `CCn1c(=O)c(-c2ccc(-c3nccnc3C)cc2Cl)cc2cnc(NCCOC)nc21` [Example 8], the IC50 against PAK3 is 500 to 5000 nM; at PAK1 [1], 50 to 500 nM; on PAK4 [2] it was > 5000 nM; against PAK2 (PAK65) it was 50 to 500 nM.
As to `CCn1c(=O)c(-c2ccc(-c3cncc(C)n3)cc2Cl)cc2cnc(NC(CCO)CCO)nc21` [Example 4], the IC50 against PAK3 was 500 to 5000 nM; against PAK1 [1], 500 to 5000 nM; against PAK4 [2] it was > 5000 nM; against PAK2 (PAK65), 50 to 500 nM.
With `CCn1c(=O)c(-c2ccc(-c3cncc(C)n3)cc2Cl)cc2cnc(NCCO)nc21` [Example 7], the IC50 at PAK3 was 50 to 500 nM; at PAK1 [1], 50 to 500 nM; against PAK4 [2] it was > 5000 nM; at PAK2 (PAK65), 50 to 500 nM.
Consider `CCn1c(=O)c(-c2ccc(-c3nccnc3C)cc2Cl)cc2cnc(NCCCOC)nc21` [Example 9], for which the IC50 against PAK3 was 500 to 5000 nM; at PAK1 [1] it was 50 to 500 nM; on PAK4 [2] it was > 5000 nM; on PAK2 (PAK65), 50 to 500 nM.
